Assay: incubation of substrate in the same buffer without enzyme (Enzyme 0), HPLC
Type: physicochemical
Description: D,L-Threo 2-amino-2-methyl-3-hydroxy-3-phenylpropionic acid (14.1 mM) is incubated at pH 8.75 in 50 mM borate buffer and 0.8 mM pyridoxal phosphate with ruptured cells containing approximately 300 μL of enzyme.
At time intervals of approximately 30, 120 and 210 minutes, 200 μL of the incubation mixture are removed and diluted with 800 μL of 1% perchloric acid. After centrifugation of this mixture, the supernatant is analyzed on HPLC.

## N[C@H](C(=O)O)[C@H](O)c1ccccc1 (relative stereo) [t.phi.S, 2amino-3-hydroxy-3-phenylpropionic acid]
30 min.
  Percentage of total area attributable to benzaldehyde and benzoic acid: 0%
120 min.
  Percentage of total area attributable to benzaldehyde and benzoic acid: 2.2%
210 min.
  Percentage of total area attributable to benzaldehyde and benzoic acid: 3.7%

— patent US5346828A, “Stereoisomeric enrichment of 2-amino-3-hydroxy-3-phenylpropionic acids using d-threonine aldolase” (Celgene Corporation, priority 1992, dated 1994)
